{
  "source": "patent US20210087240A1",
  "about": "“BLOCKING GARP CLEAVAGE AND METHODS OF USE THEREOF” (MUSC FOUNDATION FOR RESEARCH DEVELOPMENT, priority 2017, published 2021)",
  "key": {"[1]": {"test_system": "MC38 colon cancer cells", "experiment": "MC38 colon cancer tumor growth in mice", "type": "in vivo", "conditions": "subcutaneous MC38, daily 3 mg/mouse", "procedure": "(§1) FIGS. 7A-7G: Direct thrombin inhibitor Dabigatran Etexilate reduces platelet GARP expression and protects against melanoma and colon cancer. (A) Flow cytometry analysis of surface GARP/LAP complex on murine WT platelets stimulated with and without thrombin and Dabigratan Etexilate. (B) Tumor growth curves of mice subcutaneously injected with B16-F1 melanoma cells and daily treated with 3 mg/mouse of Dabigratan Etexilate. (C) Tumor growth curves of mice subcutaneously injected with MC38 colon cancer cells and daily treated with 3 mg/mouse of Dabigratan Etexilate. (D) Serum was obtained from tumor bearing MC38 colon cancer and active (D) and total TGF-β (E) was measured by ELISA. (F) Serum was obtained from tumor bearing MC38 colon cancer and soluble GARP was measured by ELISA. (G) Percentage of regulatory T cells CD25+ FOXP3+ in the CD4+ tumor-infiltrating CD4+ lymphocytes (TIL) from the indicated mice.\n(§2) (A) Tumor growth curves of mice subcutaneously injected with MC38 colon cancer cells and daily treated with 3 mg/mouse of Dabigatran etexilate. […]\n(§3) Now, to establish the clinical relevance of the Thrombin-GARP/TGF-β axis, the direct thrombin inhibitor, Dabigatran Etexilate was employed. […] As a further proof of the mechanism employed by dabigatran to exert its antitumor activity, serum active and total TGF-β, and serum GARP concentrations were assessed by ELISA."}, "[2]": {"test_system": "regulatory T cells CD25+ FOXP3+", "experiment": "Regulatory T cells among tumor-infiltrating CD4+ lymphocytes", "type": "in vivo, mice", "conditions": "CD25+ FOXP3+ in CD4+ TIL", "procedure": "as §1\nas §3, with “employed. […] The anti-tumor efficacy of Dabigatran Etexilate was tested in 2 different tumor models.” for “employed.”"}, "[3]": {"test_system": "TGF-β", "experiment": "Serum active and total TGF-β ELISA in MC38 tumor bearing mice", "type": "in vivo", "procedure": "as §1\nas §3, with “employed. […] The anti-tumor efficacy of Dabigatran Etexilate was tested in 2 different tumor models.” for “employed.”"}, "[4]": {"test_system": "soluble GARP", "experiment": "Serum soluble GARP ELISA in MC38 tumor bearing mice", "type": "in vivo", "procedure": "as §1\nas §3, with “employed. […] The anti-tumor efficacy of Dabigatran Etexilate was tested in 2 different tumor models.” for “employed.”"}, "[5]": {"test_system": "MC38 colon cancer cells", "experiment": "Dabigatran and PD1 blocking antibody combination therapy in MC38 tumor model", "type": "in vivo, mice", "conditions": "dabigatran 3 mg/mouse daily oral gavage, 200 μg anti-PD1 every 3 days from day 8", "text": "(A) Experimental design for Dabigatran and PD1 blocking antibody combination therapy. (B) Tumor growth curves of mice subcutaneously injected with MC38 colon cancer cells and treated with Dabigatran alone, with PD1 blocking antibody, with the combination of Dabigatran and PD1 blocking antibody or left untreated. (C) Survival curve in MC38-bearing mice treated with Dabigatran alone, with PD1 blocking antibody, with the combination of Dabigatran and PD1 blocking antibody or left untreated. Repeated measurement 2 way Anova was performed in B. Log-rank (Mantel-Cox) was performed in C. (D) Serum was collected from the mice under the dual treatment and analyzed for TGFβ concentration by TGFβ ELISA. (E) Platelets count of the mice under dual treatment. Repeated measurement 2-way ANOVA was performed in B. Log-rank (Mantel-Cox) was performed in C. Two-tailed, independent Student's t-test was used in panel D and E.\nNext, Dabigatran was used in combination with PD1 blockade to block thrombin and consequentially platelet activation to achieve both a reduction of systemic and circulating TGF-β, and the abrogation of platelet-mediated tumor support. Platelets, indeed, secrete many other factors beyond TGF-β that facilitate tumor immune evasion. Animals harboring palpable tumors were daily treated with 3 mg/mouse dabigatran by oral gavage. […]"}, "[6]": {"test_system": "B16-F1 melanoma cells", "experiment": "B16-F1 melanoma tumor growth in mice", "type": "in vivo", "conditions": "subcutaneous B16-F1, daily 3 mg/mouse, no adoptive T cell transfer", "procedure": "as §1, §2, §3"}, "[7]": {"test_system": "TGFβ", "experiment": "TGFβ ELISA on serum of WT B6 mice treated for one week", "type": "in vivo", "conditions": "one week daily gavage of 3 mg/mouse", "procedure": "(A) Tumor growth curves of mice subcutaneously injected with MC38 colon cancer cells and daily treated with 3 mg/mouse of Dabigatran etexilate. (B) Tumor growth curves of mice subcutaneously injected with B16-F1 melanoma cells and daily treated with 3 mg/mouse of Dabigatran etexilate. (C) TGFβ ELISA on serum of WT B6 mice treated for one week with daily gavage of 3 mg/mouse of Dabigatran etexilate. Repeated measurement 2-way ANOVA was performed in A and B."}, "[8]": {"test_system": "thrombin activated platelets", "experiment": "Flow cytometry of surface GARP/LAP on platelets stimulated with thrombin", "type": "cell-based, murine", "procedure": "as §1\nas §3, with “employed. […] The anti-tumor efficacy of Dabigatran Etexilate was tested in 2 different tumor models.” for “employed.”"}, "[9]": {"test_system": "T1, GARP (Glycoprotein-A Repetitions Predominant Protein), wild type, expressed on PreB cells", "T1 sequence": "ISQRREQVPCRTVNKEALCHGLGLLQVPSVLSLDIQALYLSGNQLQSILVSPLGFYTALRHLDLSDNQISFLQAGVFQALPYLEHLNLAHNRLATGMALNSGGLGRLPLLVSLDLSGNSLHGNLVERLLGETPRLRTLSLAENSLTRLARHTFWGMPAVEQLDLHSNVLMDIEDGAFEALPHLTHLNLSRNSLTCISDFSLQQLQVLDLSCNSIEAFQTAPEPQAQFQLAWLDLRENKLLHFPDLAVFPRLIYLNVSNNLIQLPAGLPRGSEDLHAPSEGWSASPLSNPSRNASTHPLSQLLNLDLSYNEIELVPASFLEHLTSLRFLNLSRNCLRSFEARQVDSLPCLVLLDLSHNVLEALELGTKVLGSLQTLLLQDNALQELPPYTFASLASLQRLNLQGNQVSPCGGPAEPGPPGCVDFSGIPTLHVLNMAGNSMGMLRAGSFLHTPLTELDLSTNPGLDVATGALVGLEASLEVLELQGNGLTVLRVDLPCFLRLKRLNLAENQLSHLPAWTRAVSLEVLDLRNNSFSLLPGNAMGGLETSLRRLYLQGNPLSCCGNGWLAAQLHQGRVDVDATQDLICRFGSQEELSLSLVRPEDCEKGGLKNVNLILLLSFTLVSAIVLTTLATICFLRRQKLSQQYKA"}, "[10]": {"test_system": "recombinant form of soluble GARP (sGARP) where the transmembrane domain was replaced by IgG1 Fc fragment"}, "[11]": {"test_system": "T2, GARP double mutant (DM) PR 267-268AA PR 286-287AA, expressed on PreB cells", "T2 sequence": "T1 sequence with P249A, R250A, P268A, R269A"}, "[12]": {"test_system": "thrombin", "experiment": "Competition assay: GARP expressing PreB cells digested with thrombin, western blot", "type": "cell-based", "conditions": "4 μg thrombin", "text": "FIGS. 12A-12E: Thrombin cleaves GARP at the amino acid position 267 and 286 between proline and arginine. (A) Surface Flow cytometry analysis for GARP of WT PreB cells and GARP expression in PreB cells expressing WT GARP, GARP with single point mutation 267 aa, GARP with single point mutation 286 aa, GARP with double point mutation 267/286 aa (DM), and relative control vector. (B) Western Blot analysis of cells lysates and conditioned media of PreB cells expressing WT GARP, GARP with single point mutation 267 aa, GARP with single point mutation 286 aa, or GARP with double point mutation 267/286 aa using antibody against GARP. (C) PreB cells expressing WT or DM GARP were digested with increasing concentration of thrombin (0, 1, 2, and 4 μg in 25 μl), followed by western blot analysis. (D) Recombinant fragment of GARP containing the two Proline Arginine thrombin binding sites (T250; SEQ ID NO:1). (E) Western blotting analysis of GARP expressing PreB cells digested with 4 μg of thrombin in presence and absence of 4 μg of T250.\nThus, 3 types of mutants: PR 267-268AA (GARP 267), PR 286-287AA (GARP 286), and double mutant (DM) PR 267-268AA PR 286-287AA (GARP 267-286, -DM) were generated. […] Next, it tested whether GARP-DM was resistant to the cleavage of exogenous thrombin. To this end, PreB GARP-WT and PreB GARP-DM were treated with increasing concentrations of thrombin."}},
  "note": "Where a chain is given by its changes, count along the chain named.",
  "data": [
    {"molecule": "CCCCCCOC(=O)NC(=N)c1ccc(NCc2nc3cc(C(=O)N(CCC(=O)OCC)c4ccccn4)ccc3n2C)cc1", "note": "[Dabigatran, Dabigatran Etexilate]", "values": [
      {"measurement": "MC38 tumor growth", "setting": "[1]", "value": "sufficient to decrease the rate of tumor growth"},
      {"measurement": "MC38 tumor growth", "setting": "[1]; listed as Dabigatran etexilate", "value": "has anti-cancer effect in MC38 colorectal cancer"},
      {"measurement": "TGF-β mediated induction of Tregs in the tumor microenvironment", "setting": "[2]", "value": "reduces the TGF-β mediated induction of Tregs"},
      {"measurement": "serum total TGF-β", "setting": "[3]", "value": "reduced serum total TGF-β"},
      {"measurement": "serum active TGF-β, mean", "setting": "[3]; difference to untreated not statistically significant", "value": "42.47±23.73"},
      {"measurement": "serum soluble GARP", "setting": "[4]", "value": "impairs the release of serum soluble GARP from platelets"},
      {"measurement": "tumor growth", "setting": "[5]", "value": "effective in reducing tumor growth"},
      {"measurement": "B16-F1 tumor growth", "setting": "[6]", "value": "reduced B16-F1 tumor aggressiveness"},
      {"measurement": "systemic active TGFβ", "setting": "[7]", "value": "decreases systemic active TGFβ"},
      {"measurement": "GARP expression on platelets", "setting": "[8]", "value": "increase of GARP expression on platelets can be neutralized"}
    ]},
    {"molecule": "thrombin", "values": [
      {"measurement": "western blot after digestion of PreB GARP-WT with increasing concentrations of thrombin", "setting": "[9]", "value": "Both 44 and 29 KD fragments increased in a dose dependent fashion in GARP-WT"},
      {"measurement": "western blot of soluble GARP digested with increasing concentrations of thrombin", "setting": "[10]", "value": "digestion of soluble GARP with thrombin gave rise to 3 fragments: GARP full length (72 KD), and the 2 smaller fragments of 44 and 29 KD"},
      {"measurement": "western blot after digestion of PreB GARP-DM with increasing concentrations of thrombin", "setting": "[11]", "value": "no cleaved products were observed in GARP-DM"}
    ]},
    {"molecule": "T250: Recombinant fragment of GARP containing the two Proline Arginine thrombin binding sites; DLRENKLLHFPDLAVFPRLIYLNVSNNLIQLPAGLPRGSEDLHAPSEGWSA (SEQ ID NO:1) (GARP peptide)", "values": [
      {"measurement": "competition with surface GARP in binding with thrombin", "setting": "[12]; 4 μg T250", "value": "competed with surface GARP in binding with thrombin"},
      {"measurement": "GARP cleavage", "setting": "[12]; in presence of exogenous thrombin, 4 μg T250, western blot", "value": "able to reduce GARP cleavage"}
    ]}
  ]
}
